Measurements: ChEMBL document CHEMBL1132596, “Non-peptide corticotropin-releasing hormone antagonists: syntheses and structure-activity relationships of 2-anilinopyrimidines and -triazines” (J Med Chem, 1999)
Values joined by “and” are separate entries in the source; they are usually repeats but may differ in a detail not shown here. Equal entries are not always repeated.

What was measured:
[1] = biological target: T1, Corticotropin-releasing factor receptor 1 (Homo sapiens, UniProt P34998); experiment: Binding affinity for human recombinant corticotropin releasing factor receptor 1
T1 sequence (P34998 whole entry): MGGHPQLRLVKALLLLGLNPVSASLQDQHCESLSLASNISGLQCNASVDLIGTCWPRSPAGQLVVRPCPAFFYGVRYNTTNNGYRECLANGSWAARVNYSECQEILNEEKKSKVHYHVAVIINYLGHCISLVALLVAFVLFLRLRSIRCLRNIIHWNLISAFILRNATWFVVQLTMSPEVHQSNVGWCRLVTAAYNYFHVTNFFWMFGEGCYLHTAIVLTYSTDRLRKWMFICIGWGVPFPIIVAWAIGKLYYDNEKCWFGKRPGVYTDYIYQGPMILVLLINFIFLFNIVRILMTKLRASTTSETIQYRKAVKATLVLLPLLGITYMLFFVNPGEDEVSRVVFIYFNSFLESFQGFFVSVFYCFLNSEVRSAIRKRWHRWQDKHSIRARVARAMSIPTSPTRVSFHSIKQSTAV

[2] = biological target: T2, Corticotropin-releasing factor receptor 1 (Rattus norvegicus, UniProt P35353); experiment: Binding affinity was measured on rat Corticotropin releasing factor receptor 1
T2 sequence (P35353 whole entry): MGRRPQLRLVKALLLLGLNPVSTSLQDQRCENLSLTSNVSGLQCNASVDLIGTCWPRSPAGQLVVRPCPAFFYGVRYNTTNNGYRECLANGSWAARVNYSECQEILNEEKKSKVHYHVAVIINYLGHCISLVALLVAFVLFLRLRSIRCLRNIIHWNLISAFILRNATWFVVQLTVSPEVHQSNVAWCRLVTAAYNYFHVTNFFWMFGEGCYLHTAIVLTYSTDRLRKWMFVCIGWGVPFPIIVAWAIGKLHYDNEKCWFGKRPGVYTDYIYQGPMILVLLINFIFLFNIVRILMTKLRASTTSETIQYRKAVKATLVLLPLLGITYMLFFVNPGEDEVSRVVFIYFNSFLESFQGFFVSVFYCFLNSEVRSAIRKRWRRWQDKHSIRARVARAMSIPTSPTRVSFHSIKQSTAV

| SMILES | Ki [1] | Ki [2] |
| --- | --- | --- |
| CCCCN(CC)c1nc(C)nc(N(CC)c2c(C)cc(C)cc2C)n1 | 23 nM |  |
| CCN(c1nc(C)cc(C)n1)c1c(Br)cc(C(C)C)cc1OC | 26 nM |  |
| CCCCN(CC#N)c1nc(C)nc(N(CC)c2ccc(N(C)C)cc2C(F)(F)F)n1 | 6 nM |  |
| CCc1ccc(N(C)c2nc(C)cc(C)n2)c(Br)c1 |  | 187 nM |
| C=CCN(c1nc(C)nc(N(CC)c2ccc(C(C)C)cc2Br)n1)C1CC1 | 5 nM |  |
| CCN(c1nc(C)nc(N(CCOC)CC2CC2)n1)c1c(C)cc(C)cc1C | 25 nM |  |
| CCCCN(CCOC)c1nc(C)nc(N(CC)c2c(C)cc(C)cc2C)n1 | 13 nM |  |
| CCN(c1nc(C)cc(C)n1)c1c(Br)cc(N(C)C)cc1OC | 5 nM |  |
| C=CCNc1nc(C)nc(N(CC)c2ccc(C(C)C)cc2Br)n1 | 33 nM |  |
| CCCN(CCC#N)c1nc(C)nc(N(CC)c2ccc(N(C)C)cc2C)n1 | 7 nM |  |
| CCN(CC)c1nc(C)nc(N(CC)c2c(Br)cc(OC)cc2OC)n1 | 10 nM |  |
| Cc1cc(C)nc(N(C)c2ccccc2I)n1 |  | 3650 nM |
| CCCN(CC1CC1)c1nc(C)nc(N(CC)c2ccc(N(C)C)cc2C(F)(F)F)n1 | 5 nM |  |
| C=CCN(CC=C)c1nc(C)nc(N(CC)c2ccc(OC(F)(F)F)cc2Br)n1 | 4 nM |  |
| CCN(CCOC)c1nc(C)nc(N(CC)c2c(C)cc(C)cc2C)n1 | 31 nM |  |
| CCN(c1ccc(C(C)C)cc1)c1nc(C)cc(C)n1 | > 1000 nM |  |

The remaining lines, values ahead:

| Ki [1] | Ki [2] | SMILES |
| --- | --- | --- |
| 27 nM |  | CCN(CC)c1cc(C)nc(N(CC)c2ccc(N(C)C)cc2Br)n1 |
| 14 nM |  | CCCCN(CC)c1cc(C)nc(N(CC)c2ccc(I)cc2Br)n1 |
| 41 nM |  | CCC(CC)Nc1nc(C)nc(N(CC)c2ccc(C(C)C)cc2Br)n1 |
| 26 nM |  | CCN(CC)c1cc(C)nc(N(CC)c2c(Br)cc(C(C)C)cc2SC)n1 |
| 20 nM |  | CCN(CC)c1nc(C)nc(N(CC)c2ccc(N(C)C)cc2C(F)(F)F)n1 |
| 54 nM |  | CCN(c1nc(C)cc(C)n1)c1ccc(N(C)C)cc1C |
|  | 38 nM | CCN(c1nc(C)cc(C)n1)c1ccc(C(C)C)cc1I |
| 14 nM |  | CCN(c1nc(C)cc(N(CCOC)Cc2ccccc2)n1)c1ccc(C(C)C)cc1Br |
| 24 nM |  | CCN(CC)c1cc(C)nc(N(CC)c2c(Cl)cc(Br)cc2Cl)n1 |
| 5 nM |  | CCCCN(CC)c1nc(C)nc(N(CC)c2ccc(C(C)C)cc2Br)n1 |
| 28 nM |  | CCN(CC)c1cc(C)nc(N(CC)c2c(Br)cc(C(C)=O)cc2OC)n1 |
| > 1000 nM |  | CCCCN(Cc1nn[nH]n1)c1cc(C)nc(N(CC)c2ccc(C(C)C)cc2Br)n1 |
| 31 nM |  | CCN(CC)c1cc(C)nc(N(CC)c2c(Br)cc(Br)cc2OC)n1 |
| 22 nM and 30 nM |  | CCN(CC)c1cc(C)nc(N(CC)c2ccc(C(C)C)cc2Br)n1 |
| 24 nM |  | CCN(CC)c1cc(C)nc(N(CC)c2ccc(S(C)(=O)=O)cc2Br)n1 |
| 5 nM |  | CCN(CC)c1cc(C)nc(N(CC)c2ccc(C(C)=O)cc2Br)n1 |
| 24 nM |  | CCN(CC)c1cc(C)nc(N(CC)c2ccc(SC)cc2Br)n1 |
| 2 nM |  | CCC(CC)c1cc(C)nc(N(CC)c2ccc(C(C)C)cc2Br)n1 |
| 11 nM |  | CCCN(CCOC)c1cc(C)nc(N(CC)c2ccc(C(C)C)cc2Br)n1 |
| 22 nM |  | CCN(CCOC)c1cc(C)nc(N(CC)c2ccc(C(C)C)cc2Br)n1 |
| 44 nM |  | CCC(CC)CNc1cc(C)nc(N(CC)c2ccc(C(C)C)cc2Br)n1 |
| 17 nM |  | CCN(CC)c1nc(C)nc(N(CC)c2ccc(C(C)=O)cc2Br)n1 |
